Patent US20250346564A1 (ARase Therapeutics Inc., priority 2022, published 2025)

Key:
PARG [1] = target: T1, PARG (Homo sapiens (Human), UniProt Q86W56); test: PARG TFMU assay (4-(trifluoromethyl)umbelliferone substrate); format: biochemical; settings: PARG 250 pM or 2 nM, 10-point dose response
Protocol: Example C. Inhibition of PARG TEMU Assay
The ability of the compounds of the Examples to inhibit PARG activity in 4. (trifluoromethyl)umbelliferone (TFMU) assay was determined as described below. PARG inhibitors were added into 384 well plate for a 10-point dose response curve at 1:3 dilutions. TFMU PARG substrate and PARG (250 pM or 2 nM) were then added to the plate to initiate enzymatic reaction. After incubation with the reagent, […] was read. IC50 values were calculated using set control points for 100% inhibition as no enzyme and 0% inhibition 250 pM or 2 nM of PARG enzyme.

PARG [2] = target: T1, PARG; test: PARG target engagement cellular assay (PAR polymer immunostaining after cisplatin); format: cell-based; settings: HCC1806 cells treated with cisplatin, then compound titration for 1 h; PAR polymer antibody readout
Protocol: Example a. Inhibition of PARG Target Engagement Cellular Assay
The ability of the compounds of the Examples to inhibit PARG was determined as described below. After treating HCC1806 cells with cisplatin, followed by PARG inhibitor compound titration for 1 h, the cells were fixed in formaldehyde. The cells were permeabilized, blocked, and incubated with antibody against poly (ADP) ribose (PAR) polymer. The cells were then washed and incubated with IR 800 conjugated secondary antibody together with TO-PRO3 iodide nuclear stain. After washing, images of the cells were captured and analyzed on Odyssey CLx instrument and analyzed using LI-COR image studio software.

T1 sequence (Q86W56 whole entry): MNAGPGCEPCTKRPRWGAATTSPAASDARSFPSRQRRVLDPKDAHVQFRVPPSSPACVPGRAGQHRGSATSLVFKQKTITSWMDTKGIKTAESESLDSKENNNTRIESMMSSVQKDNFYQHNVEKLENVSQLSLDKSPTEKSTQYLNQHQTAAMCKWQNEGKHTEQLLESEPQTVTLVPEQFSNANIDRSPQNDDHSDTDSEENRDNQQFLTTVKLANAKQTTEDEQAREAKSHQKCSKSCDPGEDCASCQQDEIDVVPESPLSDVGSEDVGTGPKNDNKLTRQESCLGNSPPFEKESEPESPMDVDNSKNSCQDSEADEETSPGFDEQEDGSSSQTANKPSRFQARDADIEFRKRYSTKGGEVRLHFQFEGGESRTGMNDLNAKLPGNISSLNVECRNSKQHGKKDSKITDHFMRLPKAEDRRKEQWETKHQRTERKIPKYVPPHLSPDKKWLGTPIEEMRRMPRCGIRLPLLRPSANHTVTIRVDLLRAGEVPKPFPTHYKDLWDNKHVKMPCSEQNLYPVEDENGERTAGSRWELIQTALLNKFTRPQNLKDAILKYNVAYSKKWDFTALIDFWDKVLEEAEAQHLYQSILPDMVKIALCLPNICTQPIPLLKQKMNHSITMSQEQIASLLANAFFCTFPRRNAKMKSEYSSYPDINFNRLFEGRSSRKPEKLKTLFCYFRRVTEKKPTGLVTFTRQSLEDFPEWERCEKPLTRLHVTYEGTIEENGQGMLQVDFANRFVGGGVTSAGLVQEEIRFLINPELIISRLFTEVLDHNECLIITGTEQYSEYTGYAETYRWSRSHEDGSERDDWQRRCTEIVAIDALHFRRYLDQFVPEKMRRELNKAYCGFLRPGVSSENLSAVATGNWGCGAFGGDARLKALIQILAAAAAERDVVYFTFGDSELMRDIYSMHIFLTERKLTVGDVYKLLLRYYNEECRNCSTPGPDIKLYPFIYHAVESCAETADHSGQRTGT

SMILES | IC50 (PARG [1]) [nM] | IC50 (PARG [2]) [µM]
CC[C@H]1C[C@@]1(C)NS(=O)(=O)c1ccc2c(c1)c(=O)n(CC)c(=O)n2CC (single isomer, unassigned) [Example 13D] | ≥ 5000 | > 100
CCn1c(=O)c2cc(S(=O)(=O)NC3(C)CSC3)ccc2n(CC)c1=O [Example 5, 1,3-diethyl-N-(3-methylthietan-3-yl)-2,4-dioxoquinazoline-6-sulfonamide] | 500 to 5000 | > 100
CNC(=O)/C=C/Cn1c(=O)[nH]c2ccc(S(=O)(=O)NC3(C)COC3)cc2c1=O [Example 19, (E)-N-methyl-4-(6-(N-(3-methyloxetan-3-yl)sulfamoyl)-2,4-dioxo-1,4-dihydroquinazolin-3(2H)-yl) but-2-enamide] | 500 to 5000 | > 100
CCn1c(=O)c2cc(S(=O)(=O)NC3(C)CCOC3)ccc2n(CC)c1=O (stereo not drawn) [Example 8, 1,3-diethyl-N-(3-methyloxolan-3-yl)-2,4-dioxoquinazoline-6-sulfonamide] |  | > 100
CCn1c(=O)c2cc(S(=O)(=O)NC3(C)CCC3)ccc2n(CC)c1=O [Example 7, 1,3-diethyl-N-(1-methylcyclobutyl)-2,4-dioxoquinazoline-6-sulfonamide] | ≥ 5000 | > 100
NC(=O)/C=C/Cn1c(=O)[nH]c2ccc(S(=O)(=O)NC34CC(C3)C4)cc2c1=O [Example 3, (2E)-4-[6-({bicyclo[1.1.1]pentan-1-yl}sulfamoyl)-2,4-dioxo-1H-quinazolin-3-yl]but-2-enamide] | 500 to 5000 | > 100
CCOC(=O)/C=C/Cn1c(=O)[nH]c2ccc(S(=O)(=O)NC34CC(C3)C4)cc2c1=O [Example 1, ethyl (2E)-4-[6-({bicyclo[1.1.1]pentan-1-yl}sulfamoyl)-2,4-dioxo-1H-quinazolin-3-yl]but-2-enoate] | ≥ 5000 | > 100
O=C(O)/C=C/Cn1c(=O)[nH]c2ccc(S(=O)(=O)NC34CC(C3)C4)cc2c1=O [Example 2, (2E)-4-[6-({bicyclo[1.1.1]pentan-1-yl}sulfamoyl)-2,4-dioxo-1H-quinazolin-3-yl]but-2-enoic Acid] | ≥ 5000 | > 100
CCn1c(=O)c2cc(S(=O)(=O)N[C@@]3(C)C[C@H]3CCO)ccc2n(CC)c1=O (single isomer, unassigned) [Example 15A] | 500 to 5000 | > 100
CCn1c(=O)c2cc(S(=O)(=O)NC3(C(F)F)COC3)ccc2n(CC)c1=O [Example 18, N-(3-(difluoromethyl)oxetan-3-yl)-1,3-diethyl-2,4-dioxo-1,2,3,4-tetrahydroquinazoline-6-sulfonamide] | 500 to 5000 | > 100
CCn1c(=O)c2cc(S(=O)(=O)N[C@@]3(C)C[C@H]3CC#N)ccc2n(CC)c1=O (racemic) [Example 16, N-((1SR,2SR)-2-(cyanomethyl)-1-methylcyclopropyl)-1,3-diethyl-2,4-dioxo-1,2,3,4-tetrahydroquinazoline-6-sulfonamide] | ≥ 5000 | > 100
COC(=O)/C=C/CCn1c(=O)[nH]c2ccc(S(=O)(=O)NC3(C)COC3)cc2c1=O [Example 12, methyl (E)-5-(6-(N-(3-methyloxetan-3-yl)sulfamoyl)-2,4-dioxo-1,4-dihydroquinazolin-3(2H)-yl)pent-2-enoate] | 500 to 5000 | > 100

Other lines, results leading:

IC50 (PARG [1]) [nM] | IC50 (PARG [2]) [µM] | SMILES
500 to 5000 | < 10 | COC(=O)/C=C/Cn1c(=O)c2cc(S(=O)(=O)NC3(C)COC3)ccc2n(CC2COC2)c1=O [Example 11, methyl (2E)-4-{6-[(3-methyloxetan-3-yl)sulfamoyl]-1-(oxetan-3-ylmethyl)-2,4-dioxoquinazolin-3-yl}but-2-enoate]
< 50 | < 10 | CC(C)C(=O)N1CCN(c2cc(S(=O)(=O)NC3(C)COC3)cc3c2cnn3-c2nnc(C(F)F)s2)CC1 [Example 6, 1-[5-(difluoromethyl)-1,3,4-thiadiazol-2-yl]-N-(3-methyloxetan-3-yl)-4-[4-(2-methylpropanoyl)piperazin-1-yl]indazole-6-sulfonamide]
500 to 5000 | 10 to 100 | COC(=O)/C=C/Cn1c(=O)[nH]c2ccc(S(=O)(=O)NC3(C)COC3)cc2c1=O [Example 9, methyl (2E)-4-{6-[(3-methyloxetan-3-yl)sulfamoyl]-2,4-dioxo-1H-quinazolin-3-yl}but-2-enoate]
50 to 500 | 10 to 100 | CCn1c(=O)c2cc(S(=O)(=O)NC3(C)COC3)ccc2n(CC)c1=O [Example 4, 1,3-diethyl-N-(3-methyloxetan-3-yl)-2,4-dioxoquinazoline-6-sulfonamide]
500 to 5000 | 10 to 100 | CCn1c(=O)c2cc(S(=O)(=O)NC3(C#N)COC3)ccc2n(CC)c1=O [Example 10, N-(3-cyanooxetan-3-yl)-1,3-diethyl-2,4-dioxoquinazoline-6-sulfonamide]
50 to 500 | 10 to 100 | CCn1c(=O)c2cc(S(=O)(=O)N[C@@]3(C)CO[C@H]3C)ccc2n(CC)c1=O (single isomer, unassigned) [Example 17A]
< 50 | 10 to 100 | Cc1ncc(Cn2c(=O)c3cc(S(=O)(=O)NC4(C)COC4)ccc3n(Cc3sc(C)nc3C)c2=O)s1 [Example 14, 1-((2,4-dimethylthiazol-5-yl)methyl)-N-(3-methyloxetan-3-yl)-3-((2-methylthiazol-5-yl)methyl)-2,4-dioxo-1,2,3,4-tetrahydroquinazoline-6-sulfonamide]
50 to 500 | 10 to 100 | CCn1c(=O)c2cc(S(=O)(=O)NC3(CF)COC3)ccc2n(CC)c1=O [Example 20, 1,3-diethyl-N-(3-(fluoromethyl)oxetan-3-yl)-2,4-dioxo-1,2,3,4-tetrahydroquinazoline-6-sulfonamide]
